Measured values reported in patent US20080039422A1, “Vitamin B12-Containing Compositions and Methods of Use” (Transition Therapeutics Inc., priority 2004, published 2008).

How the values were obtained:
[1] = Formulation of a buffer system; assay type: physicochemical; details: 0.025 M phosphate buffer system, pH 8
Protocol: It was also noted that changes in pH occurred during the solubility study. […] A suitable 0.025 M buffer system was developed containing 7.25 mg/ml disodium hydrogen phosphate dodecahydrate and 0.74 mg/ml sodium dihydrogen phosphate dihydrate.

[2] = reported, cited from earlier work
[3] = CN-Cbl concentration in excipient solutions after challenge, mixing and heating; assay type: physicochemical
Protocol: The experiments conducted in this series feature cyanocobalamin (CN-Cbl). Varying amounts of CN-Cbl were added to various excipients, including water alone, water with one other agent (e.g., ethanol) and water with two other agents (e.g., ethanol and propylene glycol). The stability was tested after varying amounts of time, and following procedures in which the vitamin B12 compound and its excipient were combined by vigorous mixing and heated.
More specifically, for each excipient condition, CN-Cbl was weighed into an Eppendorf tube, and an appropriate volume of excipient solution was added to achieve the “challenge” concentration in a total volume of ˜0.4-0.7 ml. The tube was then vortexed before being heated to 60° C. for two hours, with additional mixing by vortexing carried out for 5-10 seconds every 5-10 minutes.
Following the mixing and heating procedure described above, the tubes were cooled to room temperature (RT) and left at room temperature for 1-2 hours. Before measuring the concentration of CN-Cbl, the solutions were clarified by centrifugation for ten minutes at rcf 16,100. […] Cyanocobalamin and cyanocobalamin-containing solutions were protected from light (by being kept covered with foil) as much as practicable.
In one study, CN-Cbl was combined with excipients containing propylene glycol, ethanol, PEG 300, or glycerol so that the final maximum concentration of CN-Cbl could be as high as 100 mg/ml. The amount of each excipient was also varied from 5-80% (however, not all possible variants were tested). […] The concentration of CN-Cbl to be solubilized (the “challenge”) in each case was 100 mg/ml of CN-Cbl, and the concentration of each of the excipients varied from 5% to 80% in water. […] The concentrations of CN-Cbl in other excipients were even greater. For example, the concentration of CN-Cbl in solutions containing 40 or 50% PEG 300 was about 45 mg/ml; the concentration in 15% ethanol was about 35 mg/ml; the concentration in 20% ethanol was about 52 mg/ml; and the concentrations in propylene glycol at any concentration over 30% was more than 85 mg/ml (see Table 1).
In other studies, combinations were tested of ethanol and propylene glycol or of ethanol and PEG 300. Tables 2A-2D are tables showing the concentrations of cyanocobalamin (CN-Cbl; mg/ml) in combinations of excipients. […] The concentrations of ethanol ranged from 0-20% and the concentrations of propylene glycol ranged from 0 to 60%. […] In Table 2C, the amount of propylene glycol and the amount of CN-Cbl (the “challenge”) varied. The excipient contained 20% ethanol and 0-40% propylene glycol, and the amount of CN-Cbl challenge added varied from 50-200 mg/ml. Table 2D reports final concentrations of CN-Cbl when excipients containing varying amounts of propylene glycol and ethanol were challenged with 400 mg/ml CN-Cbl.

cyanocobalamin [CN-Cbl]
reduction of pH of the buffered solution on addition of CN-Cbl [1]: 0.1 pH unit
hygroscopicity ([2]; anhydrous form): very hygroscopic
solubility in water ([2]; 1:80 (Merck Index 1996)): ~12.5 mg/mL
final concentration of CN-Cbl ([3]; challenge 50 mg/ml, 20% ethanol and 0-40% propylene glycol): about 50 mg/ml
concentration of CN-Cbl ([3]; challenge 100 mg/mL, Ethanol 10.0% (v/v)): 29400 µg/mL
concentration of CN-Cbl ([3]; challenge 100 mg/mL, Glycerol 10.0% (v/v)): 18200 µg/mL
concentration of CN-Cbl ([3]; challenge 100 mg/mL, Glycerol 15.0% (v/v)): 19400 µg/mL
concentration of CN-Cbl ([3]; challenge 100 mg/mL, Glycerol 20.0% (v/v)): 21500 µg/mL
concentration of CN-Cbl ([3]; challenge 100 mg/mL, H2O): 14100 µg/mL
concentration of CN-Cbl ([3]; challenge 100 mg/mL, PEG 300 10.0% (v/v)): 24100 µg/mL
concentration of CN-Cbl ([3]; challenge 100 mg/mL, PEG 300 20.0% (v/v)): 34400 µg/mL
concentration of CN-Cbl ([3]; challenge 100 mg/mL, PEG 300 30.0% (v/v)): 40500 µg/mL
concentration of CN-Cbl ([3]; challenge 100 mg/mL, Propylene Glycol 10.0% (v/v)): 28100 µg/mL
concentration of CN-Cbl ([3]; challenge 100 mg/mL, Propylene Glycol 20.0% (v/v)): 41800 µg/mL
concentration of CN-Cbl ([3]; challenge 100 mg/mL, Propylene Glycol 30.0% (v/v)): 95300 µg/mL
concentration of CN-Cbl ([3]; challenge 100 mg/mL, Propylene Glycol 40.0% (v/v)): 95100 µg/mL
concentration of CN-Cbl ([3]; challenge 100 mg/mL, Propylene Glycol 50.0% (v/v)): 95100 µg/mL
concentration of CN-Cbl ([3]; challenge 100 mg/mL, Propylene Glycol 60.0% (v/v)): 95100 µg/mL
concentration of CN-Cbl ([3]; challenge 100 mg/mL, Propylene Glycol 70.0% (v/v)): 85300 µg/mL
concentration of CN-Cbl ([3]; challenge 100 mg/mL, Propylene Glycol 80% (v/v)): 90100 µg/mL
final concentration of CN-Cbl ([3]; challenge 100 mg/ml, 20% ethanol and 0-40% propylene glycol): about 100 mg/ml
concentration of CN-Cbl ([3]; challenge 100 mg/ml, propylene glycol at any concentration over 30%): more than 85 mg/ml
final concentration of CN-Cbl ([3]; challenge 175 mg/ml, 20% ethanol and 20% propylene glycol): about 177 mg/ml
concentration of CN-Cbl ([3]; challenge 200 mg/ml, PEG 300 40%, ethanol 5%): 77000 µg/mL
concentration of CN-Cbl ([3]; challenge 200 mg/ml, PEG 300 40%, ethanol 10%): 44400 µg/mL
concentration of CN-Cbl ([3]; challenge 200 mg/ml, PEG 300 40%, ethanol 15%): 62500 µg/mL
concentration of CN-Cbl ([3]; challenge 200 mg/ml, PG 0%, ethanol 0%): 17500 µg/mL
concentration of CN-Cbl ([3]; challenge 200 mg/ml, PG 0%, ethanol 5%): 22500 µg/mL
concentration of CN-Cbl ([3]; challenge 200 mg/ml, PG 0%, ethanol 10%): 28500 µg/mL
concentration of CN-Cbl ([3]; challenge 200 mg/ml, PG 0%, ethanol 15%): 27700 µg/mL
concentration of CN-Cbl ([3]; challenge 200 mg/ml, PG 0%, ethanol 20%): 176000 µg/mL
concentration of CN-Cbl ([3]; challenge 200 mg/ml, PG 20%, ethanol 0%): 31300 µg/mL
concentration of CN-Cbl ([3]; challenge 200 mg/ml, PG 20%, ethanol 5%): 34400 µg/mL
concentration of CN-Cbl ([3]; challenge 200 mg/ml, PG 20%, ethanol 10%): 55600 µg/mL
concentration of CN-Cbl ([3]; challenge 200 mg/ml, PG 20%, ethanol 15%): 182500 µg/mL
concentration of CN-Cbl ([3]; challenge 200 mg/ml, PG 20%, ethanol 20%): 177500 µg/mL
concentration of CN-Cbl ([3]; challenge 200 mg/ml, PG 30%, ethanol 0%): 35900 µg/mL
concentration of CN-Cbl ([3]; challenge 200 mg/ml, PG 30%, ethanol 5%): 64800 µg/mL
concentration of CN-Cbl ([3]; challenge 200 mg/ml, PG 30%, ethanol 15%): 150500 µg/mL
concentration of CN-Cbl ([3]; challenge 200 mg/ml, PG 30%, ethanol 20%): 180200 µg/mL
concentration of CN-Cbl ([3]; challenge 200 mg/ml, PG 40%, ethanol 0%): 172500 µg/mL
concentration of CN-Cbl ([3]; challenge 200 mg/ml, PG 40%, ethanol 5%): 177100 µg/mL
concentration of CN-Cbl ([3]; challenge 200 mg/ml, PG 40%, ethanol 10%): 184400 µg/mL
concentration of CN-Cbl ([3]; challenge 200 mg/ml, PG 40%, ethanol 20%): 186000 µg/mL
concentration of CN-Cbl ([3]; challenge 200 mg/ml, PG 50%, ethanol 0%): 145100 µg/mL
concentration of CN-Cbl ([3]; challenge 200 mg/ml, PG 50%, ethanol 5%): 179400 µg/mL
concentration of CN-Cbl ([3]; challenge 200 mg/ml, PG 50%, ethanol 10%): 190200 µg/mL
concentration of CN-Cbl ([3]; challenge 200 mg/ml, PG 50%, ethanol 15%): 179400 µg/mL
concentration of CN-Cbl ([3]; challenge 200 mg/ml, PG 50%, ethanol 20%): 187900 µg/mL
concentration of CN-Cbl ([3]; challenge 200 mg/ml, PG 60%, ethanol 0%): 185200 µg/mL
concentration of CN-Cbl ([3]; challenge 200 mg/ml, PG 60%, ethanol 5%): 184800 µg/mL
concentration of CN-Cbl ([3]; challenge 200 mg/ml, PG 60%, ethanol 10%): 186800 µg/mL
concentration of CN-Cbl ([3]; challenge 200 mg/ml, PG 60%, ethanol 15%): 186400 µg/mL
concentration of CN-Cbl ([3]; challenge 200 mg/ml, PG 60%, ethanol 20%): 196000 µg/mL
concentration of CN-Cbl ([3]; control experiments: water, challenged with 200 mg/ml): about 20 mg/ml
CN-Cbl solubilized ([3]; water, regardless of the amount of the challenge (50-200 mg/ml)): no more than 30 mg/ml
